The values that follow are results of earlier work, collected in patent US8221792B2 (Farnam Companies, Inc., priority 2005, dated 2012).

For data set [1] the following is noted: in human.
For data set [2] the following is noted: in dogs.
For data set [3] the following is noted: in vivo.

Structures can show the parent of a compound that is named as a salt. Where two headings read alike, the source gives them in different places.

Broadly, the half-life is the time in which the quantity being followed falls by half. As to `COc1cccc([C@@]2(O)CCCC[C@@H]2CN(C)C)c1` (racemic) [tramadol, rac-(1R,2R)-2-(dimethylaminomethyl)-1-(3-methoxyphenyl)-cyclohexanol], the half-life in data set [1] is 5.6 to 7.0 h; in data set [2] it was 0.8 to 1.7 h.
With `NCC1(CC(=O)O)CCCCC1` [Gabapentin], the elimination half-life in data set [3] is 5 to 7 h.
Regarding `COc1cccc(C2(O)CCCCC2CN(C)C)c1` (centres unmarked) [Tramadol HCl], the solubility in water entry is recorded as “freely soluble”. For the same compound, the solubility in water result (listed as tramadol hydrochloric acid salt) was “highly water soluble”.
